The assay has as its target T1, F508delCFTR (Homo sapiens, UniProt P13569, DEL508-508).
T1 construct: expressed in transfected cells; host or cells: CFBE41o- human lung derived epithelial cells (CFBE41o-F508delCFTR-HRP), doxycycline-inducible
In words: Cell Surface Expression-Horse Radish Peroxidase (CSE-HRP) Assay.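 For EC50 (with co-corrector): co-corrector chromenyl benzoic acid corrector at 2 or 3 µM.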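 For Maximum % activity (without co-corrector): % of on-plate positive control chromenyl benzoic acid corrector at 2 or 3 µM.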 Conditions: for Maximum % activity (with co-corrector) / Emax: maximum at any tested concentration; for Emax: read-out: Maximum % activity (without co-corrector). The class given is cell-based. Summed up: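 Corrector compounds were given as 8-point 3-fold series from 20 or 30 μM, with or without a 2 μM co-corrector, for 18-24 h at 33 °C. Surface HRP was read by luminol luminescence as % of positive control; variable-Hill-slope sigmoidal fitting gave EC50 from triplicate plates.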

[1] abbreviates: test compound with co-corrector.
[2] abbreviates: test compound with co-corrector, read-out: EC50 (with co-corrector).
The mark [3] stands for this setting: test compound without co-corrector.
Where [4] appears, read: test compound without co-corrector, read-out: EC50 (without co-corrector).

These results are taken from patent US10829473B2, “Modulators of the cystic fibrosis transmembrane conductance regulator protein and methods of use” (AbbVie Overseas S.Á.R.L., priority 2017, dated 2020).

Molecules are shown by their SMILES. Like-named read-outs stand apart in the source and are kept apart here.

T1 sequence (P13569 with tags, fused parts or gaps DEL508-508): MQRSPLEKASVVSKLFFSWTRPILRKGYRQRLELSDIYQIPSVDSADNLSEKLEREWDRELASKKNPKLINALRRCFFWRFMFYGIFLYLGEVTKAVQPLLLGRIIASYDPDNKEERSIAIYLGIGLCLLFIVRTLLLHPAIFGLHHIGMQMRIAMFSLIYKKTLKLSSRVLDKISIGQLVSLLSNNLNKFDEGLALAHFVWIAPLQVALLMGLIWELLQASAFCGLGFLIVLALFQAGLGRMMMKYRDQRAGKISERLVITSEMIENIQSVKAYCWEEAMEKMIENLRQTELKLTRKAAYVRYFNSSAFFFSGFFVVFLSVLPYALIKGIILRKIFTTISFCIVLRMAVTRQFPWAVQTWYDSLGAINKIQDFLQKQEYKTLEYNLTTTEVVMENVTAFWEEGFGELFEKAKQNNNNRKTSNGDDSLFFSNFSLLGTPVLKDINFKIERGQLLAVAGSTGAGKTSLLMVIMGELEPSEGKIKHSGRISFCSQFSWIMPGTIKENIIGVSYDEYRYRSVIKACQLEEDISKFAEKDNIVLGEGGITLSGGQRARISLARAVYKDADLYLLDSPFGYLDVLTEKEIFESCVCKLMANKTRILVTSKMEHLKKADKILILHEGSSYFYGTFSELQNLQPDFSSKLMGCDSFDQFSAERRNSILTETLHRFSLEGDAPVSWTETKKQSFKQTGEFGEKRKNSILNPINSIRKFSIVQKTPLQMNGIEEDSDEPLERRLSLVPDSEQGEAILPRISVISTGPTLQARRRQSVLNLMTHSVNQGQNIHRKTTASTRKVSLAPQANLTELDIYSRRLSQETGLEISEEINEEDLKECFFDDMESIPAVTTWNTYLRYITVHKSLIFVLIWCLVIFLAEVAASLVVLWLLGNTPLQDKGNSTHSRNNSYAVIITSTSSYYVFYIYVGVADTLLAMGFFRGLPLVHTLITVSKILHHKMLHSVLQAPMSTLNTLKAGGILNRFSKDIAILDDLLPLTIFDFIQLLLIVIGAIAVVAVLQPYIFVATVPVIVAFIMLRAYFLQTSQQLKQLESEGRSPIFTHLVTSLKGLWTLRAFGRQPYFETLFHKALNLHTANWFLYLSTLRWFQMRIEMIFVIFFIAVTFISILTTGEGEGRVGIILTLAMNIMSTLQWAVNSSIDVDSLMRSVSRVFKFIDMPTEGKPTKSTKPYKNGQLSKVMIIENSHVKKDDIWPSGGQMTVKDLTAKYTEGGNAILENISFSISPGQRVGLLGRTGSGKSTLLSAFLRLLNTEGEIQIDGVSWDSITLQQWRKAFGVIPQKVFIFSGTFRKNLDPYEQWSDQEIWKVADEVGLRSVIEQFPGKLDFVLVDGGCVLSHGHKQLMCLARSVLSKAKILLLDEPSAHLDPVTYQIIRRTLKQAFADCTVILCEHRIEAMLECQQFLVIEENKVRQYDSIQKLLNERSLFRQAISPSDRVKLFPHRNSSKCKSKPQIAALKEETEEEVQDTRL

Turning to `Cc1ccc2c(S(=O)(=O)NC(=O)C3(c4cc(C5CCC5)cnc4OCC4CC4)CC3)cccc2n1` [Example GI-110, 1-[5-cyclobutyl-2-(cyclopropylmethoxy)pyridin-3-yl]-N-(2-methylquinoline-5-sulfonyl)cyclopropane-1-carboxamide], the “Maximum % activity (with co-corrector)” value under setting [1] is recorded as “+++ (≥350)”. Further, the EC50 reads like this: under setting [2], less than 3 µM; under setting [4], less than 3 µM. Further, under setting [3], the Emax was greater than 150%.
For the compound `COCCOc1ncc(C2CCC2)cc1C1(C(=O)NS(=O)(=O)c2cccc3ncccc23)CC1` [Example GI-111, 1-[5-cyclobutyl-2-(2-methoxyethoxy)pyridin-3-yl]-N-(quinoline-5-sulfonyl)cyclopropane-1-carboxamide], the “Maximum % activity (with co-corrector)” value under setting [1] is reported as “+++ (≥350)”. The EC50 is, setting by setting: under setting [2], less than 3 µM; under setting [4], less than 3 µM. Further, the Emax under setting [3] is greater than 150%.
Regarding `CCc1cnc(OCCOC)c(C2(C(=O)NS(=O)(=O)c3cccc4ncccc34)CC2)c1` [Example GI-112, 1-[5-ethyl-2-(2-methoxyethoxy)pyridin-3-yl]-N-(quinoline-5-sulfonyl)cyclopropane-1-carboxamide], the “Maximum % activity (with co-corrector)” value under setting [1] was “+++ (≥350)”. The EC50 reads like this: under setting [2], less than 3 µM; under setting [4], 3 to 10 µM. For the same compound, under setting [3], the Emax is greater than 150%.
Taken in the same sequence, the figures for `Cc1ccc2c(S(=O)(=O)NC(=O)C3(c4cc(C5CCC5)cnc4N4CCC(OC(C)C)CC4)CC3)cccc2n1` [Example GI-113, 1-(5-cyclobutyl-2-{4-[(propan-2-yl)oxy]piperidin-1-yl}pyridin-3-yl)-N-(2-methylquinoline-5-sulfonyl)cyclopropane-1-carboxamide] were “+++ (≥350)”, less than 3 µM, less than 3 µM and greater than 150%.
For `CCOc1ncc(C2CCC2)cc1C1(C(=O)NS(=O)(=O)c2cccc3ncccc23)CC1` [Example GI-114, 1-(5-cyclobutyl-2-ethoxypyridin-3-yl)-N-(quinoline-5-sulfonyl)cyclopropane-1-carboxamide], in that order: “+++ (≥350)”, less than 3 µM, 3 to 10 µM and greater than 150%.
For the compound `CCOc1ncc(C2CCC2)cc1C1(C(=O)NS(=O)(=O)c2cccc3nc(C)ccc23)CC1` [Example GI-115, 1-(5-cyclobutyl-2-ethoxypyridin-3-yl)-N-(2-methylquinoline-5-sulfonyl)cyclopropane-1-carboxamide], under setting [1], the “Maximum % activity (with co-corrector)” value was “+++ (≥350)”. The EC50 runs as follows: under setting [2], less than 3 µM; under setting [4], less than 3 µM. The Emax under setting [3] was greater than 150%.
On to `CCOc1ncc(CC)cc1C1(C(=O)NS(=O)(=O)c2cccc3ncccc23)CC1` [Example GI-116, 1-(2-ethoxy-5-ethylpyridin-3-yl)-N-(quinoline-5-sulfonyl)cyclopropane-1-carboxamide], for which the “Maximum % activity (with co-corrector)” value under setting [1] was “+++ (≥350)”. Moreover, the EC50 was less than 3 µM under setting [2] and 3 to 10 µM under setting [4]. For the same compound, the Emax under setting [3] was greater than 150%.
For `CCOc1ncc(CC)cc1C1(C(=O)NS(=O)(=O)c2cccc3nc(C)ccc23)CC1` [Example GI-117, 1-(2-ethoxy-5-ethylpyridin-3-yl)-N-(2-methylquinoline-5-sulfonyl)cyclopropane-1-carboxamide], in that order: “+++ (≥350)”, less than 3 µM, less than 3 µM and greater than 150%.
Consider `COCC1CCN(c2ncc(C3CCC3)cc2C2(C(=O)NS(=O)(=O)c3cccc4[nH]ccc34)CC2)CC1` [Example GI-118, 1-{5-cyclobutyl-2-[4-(methoxymethyl)piperidin-1-yl]pyridin-3-yl}-N-(1H-indole-4-sulfonyl)cyclopropane-1-carboxamide], for which the “Maximum % activity (with co-corrector)” value under setting [1] is recorded as “+++ (≥350)”. Also, the EC50 by setting is: under setting [2], less than 3 µM; under setting [4], less than 3 µM. Also, the Emax under setting [3] was greater than 150%.

A word on the EC50: it is the midpoint of the concentration-response curve.
